From patent publication US12640251B2, “Methods of treating dementia associated with alzheimer's disease with protective protein/cathepsin A (PPCA)” (St. Jude Children's Research Hospital, priority 2011, dated 2026)
“Also recorded” adds a separate entry of the source.

Assays:
[1] = system: RH41 cells; assay: Doxorubicin exposure, apoptotic response (cleaved PARP immunoblot); assay type: cell-based, human; details: parental RH41 cells, high NEU1
[2] = system: RH30 cells; assay: Doxorubicin efflux assay; assay type: cell-based, human; details: 3 μg/mL DOXO for 2 hours, then DOXO-free medium for 2 hours
Protocol: Cells were plated and maintained at 50% confluency. The next day, they were treated with medium containing 3 μg/mL DOXO for 2 hours. Treated cells were then washed 3 times with PBS and cultured in DOXO-free medium for an additional 2 hours, to allow efflux of the drug into fresh medium. The conditioned medium was then centrifuged at 1000 rpm […] for 5 minutes and a 500 μL aliquot was spun through an ULTRAFREE-MC 0.1 μm Eppendorf centrifugal filter (Millipore) to capture the effluxed drug. The filter was then placed on a microscopic slide and images of the red fluorescence filter were taken on a Nikon Cl microscope.

[3] = system: RH30^NEU1 cells; assay: DOXO dose response, apoptotic response (cleaved PARP immunoblot); assay type: cell-based, human; details: compared with unmodified controls
Protocol: (§1) Finally, we generated DOXO dose response curves in both parental cell lines and the modified lines to examine the differences in their apoptotic responses. Immunoblots of the cleaved poly (ADP-ribose) polymerase (PARP), a canonical apoptotic marker, were used for this purpose (data not shown).
(§2) RH30 cells were transduced with the pBABE-puro retroviral vector (AddGene), either unmodified or containing the human NEU1 cDNA. Transduced cells were selected with puromycin (2 μg/mL), according to the predetermined sensitivity of the cell line, and were maintained in 0.5 μg/mL selection medium. RH41 cells were transfected with a panel of NEU1 shRNA plasmids (RHS4533-NM000434, Open Biosystems) or the accompanying empty vector control. The cells were selected with puromycin and maintained under selection medium.

[4] = system: RH41^shNEU1 cells; assay: as above; assay type: cell-based, human; details: compared with corresponding unmodified cells
Protocol: as §1, §2

[5] = system: EW8 cells; assay: DOXO response of Ewing sarcoma cell line; assay type: cell-based; details: high-NEU1 cells
Source text: (§3) We, therefore, characterized other tumor cell lines, in terms of their invasive potential and NEU1 status. We chose the Ewing sarcoma cell lines, EW8 and SKNEP1, for their divergent NEU1 levels. Similar to the RMS cell lines, the low-NEU1 SKNEP1 cells accumulated oversialylated LAMP1, were resistant to DOXO, and more successfully invaded matrigel and peritoneal basement membranes than did the high-NEU1 DOXO-sensitive EW8 cells (data not shown). We also analyzed the colon carcinoma cell lines, SW480 and SW620, because of their well-characterized derivation (Leibovitz et al., 1976): SW480 cells are from a primary colon carcinoma; SW620 cells are from a metastatic recurrence. […] This was also paralleled by a drastic increase in LAMP1 levels compared to that in SW480 (data not shown).

[6] = system: SKNEP1 cells; assay: DOXO response of Ewing sarcoma cell line; assay type: cell-based; details: low-NEU1 cells
Source text: as §3

SMILES: COc1cccc2c1C(=O)c1c(O)c3c(c(O)c1C2=O)C[C@@](O)(C(=O)CO)C[C@@H]3O[C@H]1C[C@H](N)[C@H](O)[C@H](C)O1 [doxorubicin]
- response to doxorubicin (apoptosis) [1]: highly susceptible; also recorded: readily apoptosed
- efflux of DOXO into culture medium (red fluorescence) [2]: released from these cells
- apoptotic response to DOXO [3]: more sensitive
- apoptotic response to DOXO [4]: more resistant to apoptosis
- response to DOXO [5]: sensitive
- response to DOXO [6]: resistant
